{
  "source": "paper PMC10651654",
  "about": "(Clinical and Translational Science, 2023)",
  "key": {"[1]": {"experiment": "PBPK drug-drug interaction simulations", "parameters": "species or system human"}, "BCRP": {"biological_target": "T1, BCRP (Homo sapiens, UniProt Q9UNQ0)", "T1 sequence (Q9UNQ0 1-655)": "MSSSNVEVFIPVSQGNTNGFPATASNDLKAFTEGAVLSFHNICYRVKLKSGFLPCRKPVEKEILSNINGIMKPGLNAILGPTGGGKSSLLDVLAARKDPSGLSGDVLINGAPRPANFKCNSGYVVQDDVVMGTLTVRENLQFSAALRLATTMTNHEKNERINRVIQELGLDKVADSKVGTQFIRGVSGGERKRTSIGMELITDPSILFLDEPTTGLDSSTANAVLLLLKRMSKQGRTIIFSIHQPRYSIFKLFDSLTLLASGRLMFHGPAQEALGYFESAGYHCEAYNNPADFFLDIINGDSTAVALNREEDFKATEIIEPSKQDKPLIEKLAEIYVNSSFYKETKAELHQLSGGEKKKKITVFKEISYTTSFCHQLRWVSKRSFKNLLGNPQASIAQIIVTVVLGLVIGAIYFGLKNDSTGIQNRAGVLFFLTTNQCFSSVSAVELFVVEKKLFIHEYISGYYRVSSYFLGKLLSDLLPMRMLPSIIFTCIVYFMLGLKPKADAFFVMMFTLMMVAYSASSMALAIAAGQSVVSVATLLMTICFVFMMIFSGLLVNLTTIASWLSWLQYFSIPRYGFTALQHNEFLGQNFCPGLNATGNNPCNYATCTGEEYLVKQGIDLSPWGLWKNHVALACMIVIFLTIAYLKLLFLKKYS", "experiment": "BCRP inhibition in BCRP-transfected cell monolayers", "format": "in vitro ADME"}, "[2]": {"experiment": "Clinical drug-drug interaction studies", "format": "in vivo, human"}, "OATP1B3": {"biological_target": "T2, OATP1B3 (Homo sapiens, UniProt Q9NPD5)", "T2 sequence (Q9NPD5 1-702)": "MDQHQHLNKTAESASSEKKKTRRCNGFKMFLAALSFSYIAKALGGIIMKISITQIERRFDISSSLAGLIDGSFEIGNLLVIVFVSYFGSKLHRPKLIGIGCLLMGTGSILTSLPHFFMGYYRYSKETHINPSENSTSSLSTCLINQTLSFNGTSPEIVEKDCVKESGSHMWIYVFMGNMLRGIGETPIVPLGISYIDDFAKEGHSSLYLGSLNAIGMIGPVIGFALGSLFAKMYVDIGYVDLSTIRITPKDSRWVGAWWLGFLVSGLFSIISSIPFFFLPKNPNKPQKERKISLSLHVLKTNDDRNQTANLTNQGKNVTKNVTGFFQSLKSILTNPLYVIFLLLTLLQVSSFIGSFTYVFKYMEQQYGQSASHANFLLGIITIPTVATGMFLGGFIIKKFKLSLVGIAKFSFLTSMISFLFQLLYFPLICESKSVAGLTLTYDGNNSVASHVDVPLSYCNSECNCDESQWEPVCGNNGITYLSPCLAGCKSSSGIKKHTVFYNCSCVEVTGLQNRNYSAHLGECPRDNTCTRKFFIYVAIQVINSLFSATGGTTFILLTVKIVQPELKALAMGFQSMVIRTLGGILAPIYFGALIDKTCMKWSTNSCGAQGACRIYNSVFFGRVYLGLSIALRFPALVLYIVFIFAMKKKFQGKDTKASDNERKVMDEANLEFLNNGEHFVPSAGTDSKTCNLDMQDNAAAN", "experiment": "OATP1B3 inhibition", "format": "in vitro ADME"}, "P-gp": {"biological_target": "P-gp (Homo sapiens, UniProt P08183)", "sequence (P08183 whole entry)": "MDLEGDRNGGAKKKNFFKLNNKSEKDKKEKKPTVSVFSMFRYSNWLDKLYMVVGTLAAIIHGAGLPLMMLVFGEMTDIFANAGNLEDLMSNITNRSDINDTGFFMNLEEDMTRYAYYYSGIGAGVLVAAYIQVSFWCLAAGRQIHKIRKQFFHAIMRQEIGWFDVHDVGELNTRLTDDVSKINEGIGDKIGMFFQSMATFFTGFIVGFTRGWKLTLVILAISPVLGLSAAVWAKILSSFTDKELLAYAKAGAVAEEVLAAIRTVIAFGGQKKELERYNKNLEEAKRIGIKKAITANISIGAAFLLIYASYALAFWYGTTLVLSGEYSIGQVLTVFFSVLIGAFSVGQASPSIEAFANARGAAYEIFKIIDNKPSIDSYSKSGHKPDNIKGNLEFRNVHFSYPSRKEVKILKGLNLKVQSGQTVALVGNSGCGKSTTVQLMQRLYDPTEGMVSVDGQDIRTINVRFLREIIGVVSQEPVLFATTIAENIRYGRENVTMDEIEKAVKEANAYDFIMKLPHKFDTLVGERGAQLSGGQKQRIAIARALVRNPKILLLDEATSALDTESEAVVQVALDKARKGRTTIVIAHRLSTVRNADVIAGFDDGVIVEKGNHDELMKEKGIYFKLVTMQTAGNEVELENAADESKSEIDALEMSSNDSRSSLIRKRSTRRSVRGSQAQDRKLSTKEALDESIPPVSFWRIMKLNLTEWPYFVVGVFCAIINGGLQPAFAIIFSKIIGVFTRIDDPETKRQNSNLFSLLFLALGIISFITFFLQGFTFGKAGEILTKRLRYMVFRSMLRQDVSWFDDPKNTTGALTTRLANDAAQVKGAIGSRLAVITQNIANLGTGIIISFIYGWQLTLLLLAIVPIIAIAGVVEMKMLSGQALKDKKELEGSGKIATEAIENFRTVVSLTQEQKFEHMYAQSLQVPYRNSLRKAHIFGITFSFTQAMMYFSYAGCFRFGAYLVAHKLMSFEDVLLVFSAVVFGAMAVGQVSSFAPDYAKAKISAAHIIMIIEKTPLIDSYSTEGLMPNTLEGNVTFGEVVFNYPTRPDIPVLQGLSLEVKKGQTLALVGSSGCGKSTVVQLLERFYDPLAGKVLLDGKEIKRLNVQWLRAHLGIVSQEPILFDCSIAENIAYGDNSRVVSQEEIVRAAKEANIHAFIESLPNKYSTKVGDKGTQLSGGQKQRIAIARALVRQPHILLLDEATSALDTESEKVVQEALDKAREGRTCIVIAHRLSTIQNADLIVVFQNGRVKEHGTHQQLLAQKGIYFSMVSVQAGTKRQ", "experiment": "P-gp inhibition in P-gp-transfected cell monolayers", "format": "in vitro ADME"}, "CYP2C9": {"biological_target": "CYP2C9 (Homo sapiens, UniProt P11712)", "sequence (P11712 whole entry)": "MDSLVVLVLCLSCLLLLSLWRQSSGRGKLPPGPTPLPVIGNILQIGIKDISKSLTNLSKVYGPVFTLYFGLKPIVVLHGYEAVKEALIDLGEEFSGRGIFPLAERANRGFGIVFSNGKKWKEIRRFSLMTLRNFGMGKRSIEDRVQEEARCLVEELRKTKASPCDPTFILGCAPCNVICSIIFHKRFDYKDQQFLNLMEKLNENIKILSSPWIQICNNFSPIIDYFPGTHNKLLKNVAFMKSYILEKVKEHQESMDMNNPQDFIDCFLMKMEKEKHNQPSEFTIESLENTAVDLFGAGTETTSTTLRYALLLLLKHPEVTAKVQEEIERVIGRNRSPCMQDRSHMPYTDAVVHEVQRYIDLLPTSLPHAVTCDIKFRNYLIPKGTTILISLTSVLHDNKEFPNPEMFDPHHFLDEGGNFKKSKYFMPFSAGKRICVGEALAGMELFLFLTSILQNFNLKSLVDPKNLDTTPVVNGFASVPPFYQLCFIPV", "experiment": "CYP2C9 inhibition", "format": "in vitro ADME"}, "[3]": {"experiment": "Physicochemical input parameters"}, "CYP2C8": {"biological_target": "T3, CYP2C8 (Homo sapiens, UniProt P10632)", "T3 sequence (P10632 1-490)": "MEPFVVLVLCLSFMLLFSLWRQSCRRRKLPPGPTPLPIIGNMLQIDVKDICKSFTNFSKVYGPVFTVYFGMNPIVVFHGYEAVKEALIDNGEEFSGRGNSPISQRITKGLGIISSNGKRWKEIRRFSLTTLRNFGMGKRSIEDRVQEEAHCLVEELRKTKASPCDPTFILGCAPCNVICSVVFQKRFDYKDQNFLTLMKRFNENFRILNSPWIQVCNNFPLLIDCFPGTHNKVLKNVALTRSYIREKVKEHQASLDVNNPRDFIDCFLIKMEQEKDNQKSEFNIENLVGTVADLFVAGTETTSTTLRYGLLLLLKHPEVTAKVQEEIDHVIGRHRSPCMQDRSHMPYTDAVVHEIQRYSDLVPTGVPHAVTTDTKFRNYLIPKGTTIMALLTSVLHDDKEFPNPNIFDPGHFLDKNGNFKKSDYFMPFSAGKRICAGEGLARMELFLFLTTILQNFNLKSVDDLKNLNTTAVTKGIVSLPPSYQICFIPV", "experiment": "CYP2C8 inhibition", "format": "in vitro ADME"}, "[4]": {"settings": "cited from earlier work"}, "CYP3A4 [5]": {"biological_target": "T4, CYP3A4 (Homo sapiens, UniProt P08684)", "T4 sequence (P08684 whole entry)": "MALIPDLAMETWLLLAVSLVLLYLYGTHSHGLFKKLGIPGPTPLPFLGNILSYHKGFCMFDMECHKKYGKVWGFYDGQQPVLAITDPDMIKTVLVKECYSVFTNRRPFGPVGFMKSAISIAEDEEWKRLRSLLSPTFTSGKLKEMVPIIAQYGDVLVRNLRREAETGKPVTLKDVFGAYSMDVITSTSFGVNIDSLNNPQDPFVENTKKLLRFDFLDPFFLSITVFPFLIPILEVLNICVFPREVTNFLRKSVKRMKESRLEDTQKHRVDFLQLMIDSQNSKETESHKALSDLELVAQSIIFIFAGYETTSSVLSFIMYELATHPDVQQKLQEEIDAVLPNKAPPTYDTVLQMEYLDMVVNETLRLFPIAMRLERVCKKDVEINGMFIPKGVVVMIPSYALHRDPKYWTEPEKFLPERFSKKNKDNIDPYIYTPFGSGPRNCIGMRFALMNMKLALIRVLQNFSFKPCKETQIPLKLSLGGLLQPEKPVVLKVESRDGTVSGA", "experiment": "biochemical", "format": "in vitro ADME"}, "[6]": {"experiment": "Apparent permeability in Caco-2 cells", "format": "in vitro ADME", "settings": "human"}, "other CYP isoforms": {"test_system": "other CYP isoforms", "experiment": "In vitro metabolism of [14C]-ziritaxestat by CYP isoforms", "format": "in vitro ADME", "settings": "human, CYP isoforms other than CYP3A4, 60 min"}, "[7]": {"settings": "cited from earlier work", "remark": "listed apart in the source"}, "OATP1B1": {"biological_target": "T5, OATP1B1 (Homo sapiens, UniProt Q9Y6L6)", "T5 sequence (Q9Y6L6 1-691)": "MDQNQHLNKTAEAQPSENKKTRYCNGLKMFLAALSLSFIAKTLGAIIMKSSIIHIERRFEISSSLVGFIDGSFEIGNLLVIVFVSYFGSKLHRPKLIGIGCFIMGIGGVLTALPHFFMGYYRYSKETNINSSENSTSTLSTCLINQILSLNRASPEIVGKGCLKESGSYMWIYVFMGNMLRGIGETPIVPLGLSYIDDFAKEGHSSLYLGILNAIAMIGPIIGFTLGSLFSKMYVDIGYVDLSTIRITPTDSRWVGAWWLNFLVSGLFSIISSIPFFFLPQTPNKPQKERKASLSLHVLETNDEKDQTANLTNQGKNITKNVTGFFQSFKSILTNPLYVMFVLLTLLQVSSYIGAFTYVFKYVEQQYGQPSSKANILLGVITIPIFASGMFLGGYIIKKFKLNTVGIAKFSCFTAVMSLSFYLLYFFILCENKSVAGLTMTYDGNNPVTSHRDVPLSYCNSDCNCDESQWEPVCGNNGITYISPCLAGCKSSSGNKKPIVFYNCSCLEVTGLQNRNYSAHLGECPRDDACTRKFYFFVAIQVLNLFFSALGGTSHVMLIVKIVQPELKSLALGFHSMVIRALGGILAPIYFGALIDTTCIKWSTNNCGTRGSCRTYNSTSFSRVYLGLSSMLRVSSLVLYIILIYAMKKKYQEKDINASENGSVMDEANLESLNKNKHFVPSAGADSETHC", "experiment": "OATP1B1 inhibition", "format": "in vitro ADME"}, "CYP3A4 [8]": {"biological_target": "T4, CYP3A4", "format": "in vitro ADME", "settings": "percent compound remaining after 60 min in presence of NADPH"}, "PBPK model": {"experiment": "PBPK model", "settings": "human, oral, 600 mg"}, "CYP3A4 [9]": {"biological_target": "T4, CYP3A4", "settings": "data on file"}, "[10]": {"settings": "cited from earlier work", "remark": "listed apart in the source"}, "CYP3A4 [11]": {"test_system": "CYP3A4", "settings": "ref GastroPlus user manual[10], cited from earlier work"}, "CYP2B6": {"test_system": "CYP2B6", "settings": "source cell empty, row above: ref GastroPlus user manual[10]; cited from earlier work"}, "[12]": {"settings": "pravastatin probe verification, interaction with gemfibrozil (OATP1B1 inhibitor)"}},
  "note": "Where two headings read alike, the source gives them in different places.",
  "data": [
    {"smiles": "CC(=O)N1CCN(c2ccc(OCC3COC(Cn4ccnc4)(c4ccc(Cl)cc4Cl)O3)cc2)CC1", "note": "(stereo not shown) [Ketoconazole]", "values": [
      {"measurement": "observed-to-predicted AUC ratio", "setting": "[1]; efavirenz verification with ketoconazole as victim", "value": 0.90}
    ]},
    {"smiles": "CCc1nc2c(C)cc(N3CCN(CC(=O)N4CC(O)C4)CC3)cn2c1N(C)c1nc(-c2ccc(F)cc2)c(C#N)s1", "note": "[Ziritaxestat, ziritaxestat]", "values": [
      {"measurement": "IC50", "setting": "BCRP", "value": "> 40", "unit": "µM"},
      {"measurement": "classification as CYP3A4 substrate", "setting": "[2]; human, in vivo", "value": "moderately sensitive CYP3A4 substrate"},
      {"measurement": "AUC0–∞ ratio, observed DDI ratio", "setting": "[2]; ziritaxestat 600 mg SD with/without voriconazole 800 mg SD, data on file", "value": 4.0},
      {"measurement": "IC50", "setting": "OATP1B3", "value": 7.04, "unit": "µM"},
      {"measurement": "IC50", "setting": "P-gp", "value": "> 40", "unit": "µM"},
      {"measurement": "IC50", "setting": "CYP2C9", "value": 13.1, "unit": "µM"},
      {"measurement": "fraction unbound", "setting": "CYP2C9; human", "value": 0.24},
      {"measurement": "solubility", "setting": "[3]; FaSSIF", "value": 540, "unit": "µg/mL"},
      {"measurement": "solubility", "setting": "[3]; buffer, pH 7.5, aqueous buffer", "value": 66, "unit": "µg/mL"},
      {"measurement": "logD", "setting": "[3]; octanol/water, pH 8.25", "value": 3.81},
      {"measurement": "pKa", "setting": "[3]; pKa1 (base)", "value": 4.99},
      {"measurement": "pKa", "setting": "[3]; pKa2 (base)", "value": 5.89},
      {"measurement": "Ki", "setting": "CYP2C8", "value": 0.753, "unit": "µM"},
      {"measurement": "time-dependent inhibition of CYP2C8 (in words)", "setting": "CYP2C8", "value": "strong"},
      {"measurement": "fraction unbound", "setting": "CYP2C8; human", "value": 0.52},
      {"measurement": "mortality (in words)", "setting": "[4]; 200 mg and 600 mg daily doses vs placebo", "value": "increased mortality compared with placebo"},
      {"measurement": "efficacy in IPF (in words)", "setting": "[4]; 200 mg and 600 mg daily doses", "value": "failed to demonstrate efficacy"},
      {"measurement": "IC50", "setting": "CYP3A4 [5]", "value": 3.7, "unit": "µM"},
      {"measurement": "Papp", "setting": "[6]", "value": 47, "unit": "×10⁻⁶ cm/s"},
      {"measurement": "contribution of other CYP isoforms to metabolism (maximum)", "setting": "other CYP isoforms", "value": "≤ 2.1", "unit": "%"},
      {"measurement": "fraction absorbed", "setting": "[7]; 600 mg dose", "value": "at least 86%"},
      {"measurement": "hepatic first-pass metabolism", "setting": "[7]", "value": 9, "unit": "%"},
      {"measurement": "volume of distribution at steady state from observed data, mean [SD]", "setting": "[7]", "value": "23 [11] L"},
      {"measurement": "renal excretion of total radioactivity", "setting": "[7]; single p.o. 600 mg [14C]-ziritaxestat, healthy male subjects", "value": "< 7", "unit": "%"},
      {"measurement": "inhibitory potential for OATP1B1 (in words)", "setting": "OATP1B1", "value": "weak"},
      {"measurement": "[14C]-ziritaxestat metabolized by CYP3A4", "setting": "CYP3A4 [8]; 10 μM", "value": 84.5, "unit": "%"},
      {"measurement": "[14C]-ziritaxestat metabolized by CYP3A4", "setting": "CYP3A4 [8]; 100 μM", "value": 28.6, "unit": "%"},
      {"measurement": "Papp", "setting": "PBPK model", "value": 120, "unit": "×10⁻⁶ cm/s"}
    ]},
    {"smiles": "COC(=O)c1ccc2c(c1)NC(=O)/C2=C(\\Nc1ccc(N(C)C(=O)CN2CCN(C)CC2)cc1)c1ccccc1", "note": "[Nintedanib, nintedanib]", "values": [
      {"measurement": "contribution of CYP3A4 to metabolism", "setting": "CYP3A4 [9]", "value": "~ 7%"},
      {"measurement": "increase in nintedanib exposure with ziritaxestat", "setting": "[2]; clinical DDI study, data on file", "value": "approximately two‐fold"},
      {"measurement": "reduction of nintedanib exposure by pirfenidone", "setting": "[10]", "value": 1.5, "unit": "fold"}
    ]},
    {"smiles": "O=C1Nc2ccc(Cl)cc2[C@@](C#CC2CC2)(C(F)(F)F)O1", "note": "[Efavirenz]", "values": [
      {"measurement": "EC50", "setting": "CYP3A4 [11]; read-out: EC50 induction CYP3A4", "value": "[…]"},
      {"measurement": "Emax induction CYP3A4", "setting": "CYP3A4 [11]", "value": "[…]"},
      {"measurement": "Emax induction CYP2B6", "setting": "CYP2B6", "value": 5.76}
    ]},
    {"smiles": "CC[C@H](C)C(=O)O[C@H]1C[C@H](O)C=C2C=C[C@H](C)[C@H](CC[C@@H](O)C[C@@H](O)CC(=O)O)[C@H]21", "note": "[Pravastatin, pravastatin]", "values": [
      {"measurement": "observed-to-predicted AUC ratio", "setting": "[1]; [12]", "value": 1.03},
      {"measurement": "observed-to-predicted Cmax ratio", "setting": "[1]; [12]", "value": 1.10}
    ]}
  ]
}
